Here are results for 19 compounds from patent US10329324B2 (viDA Therapeutics Inc., priority 2013, dated 2019).

T1 sequence (P10144 21-247): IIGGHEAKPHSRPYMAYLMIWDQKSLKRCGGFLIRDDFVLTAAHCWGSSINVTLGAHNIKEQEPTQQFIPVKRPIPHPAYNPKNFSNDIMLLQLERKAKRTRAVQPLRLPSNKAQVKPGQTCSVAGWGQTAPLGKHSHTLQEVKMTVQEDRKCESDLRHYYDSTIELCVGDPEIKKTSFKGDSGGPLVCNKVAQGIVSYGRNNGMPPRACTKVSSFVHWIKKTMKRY

One experiment addresses T1, human Granzyme B (hGzmB) (Homo sapiens, UniProt P10144).
T1 construct: purchased Froelich Lab, Northshore University Health Systems Research Institute, Evanston, Ill., USA
As to the kind of experiment: Human Granzyme B enzymatic inhibition assay (fluorogenic, kinetic). The format is biochemical.
Conditions: not given
How it is done: A specific 2× assay buffer was prepared for the enzyme to be tested (see Table 2 for final 1× assay buffer compositions). If the assay buffer included DTT, it was added immediately prior to running the assay. A 2× enzyme mix was prepared (see Table 3 for enzyme assay conditions) at 80 uL per well. Compounds were screened at one or two appropriate concentrations (to determine the percent inhibition at those concentrations) and/or a full dose response curve (typically 8 points, to identify the IC50) in duplicate, triplicate, or higher replicates as needed. An appropriate control was also assessed in full dose response, in duplicate for each assay/plate. Background control wells consisted of 1× assay buffer, DMSO (5% v/v) and substrate. Positive control wells consisted of enzyme, DMSO (5% v/v) and substrate. Test compounds and control compounds were diluted in DMSO to […] the final desired concentration. For example, a test compound may be tested in dose response, in serial, tripling dilution condition starting at 20 uM and ending at 9.1 nM (or any appropriate concentration range and dilution scheme). Control compounds were prepared similarly. Diluted compounds were prepared in a dilution plate and transferred to the reaction plate (96-well medium binding plate (Greiner Bio-One FLUOTRAC™)) to allow for the desired final concentrations when added to the enzyme with AB. After mixing, the reaction plate was placed on a shaker (at 300 RPM) for 5 min, followed by incubation (covered) on the bench, for 20 min. Plates were warmed to reaction temperature (see Table 3) for a total incubation time of 30 min. Plates so prepared were ready for addition of substrate and the subsequent reaction.
(§1) An appropriate substrate for each assay was prepared in advance at 2× the final desired concentration (see Table 2) in DMSO. The appropriate substrate mix was added to each appropriate well on the reaction plate, and the plate was read immediately in the TECAN plate reader (TECAN INFINITE® M1000 Pro), set to the correct wavelength as needed for each assay (see Table 3) using 25 cycles, kinetic interval of 1 min, number of reads per well of 20 with shaking set to 1 s, double orbital, 2 mm amplitude. For fluorescent assays the gain was set to optimal (50%).
An in vitro fluorogenic detection assay for assessing the IC50 and/or percent inhibition at a given concentration of inhibitors against human Granzyme B (hGzmB) enzyme was performed as described in Example D1. When appropriate, percent inhibition data was collected and fitted to generate IC50 data using GraphPad Prism 5 (GraphPad Software, La Jolla Calif. USA, www.graphpad.com) and its non-linear regression analysis tools or other equivalent tools. […]
as §1, with “5)” for “2)”, “assay buffer. 30 uL of the” for “DMSO. The”, “6)” for “3)”, “15” for “25”, “(100% with gain regulation) for all assays except human GzmB which was set to 85 (with the z set at 23000 um).” for “(50%).”
An in vitro fluorogenic detection assay for assessing the IC50 and/or percent inhibition at a given concentration of inhibitors against human Granzyme B (hGzmB) enzyme was performed as described in Example D5. When appropriate, percent inhibition data was collected and fitted to generate IC50 data using GraphPad Prism 5 (GraphPad Software, La Jolla Calif. USA, www.graphpad.com) and its non-linear regression analysis tools or other equivalent tools.
As a reminder, the IC50 is the concentration that gives 50% inhibition. As to `CC[C@H](C)[C@H](NC(=O)[C@H](N)CC(=O)O)C(=O)NCC(=O)N1c2ccccc2C[C@H]1C(=O)NCc1nn[nH]n1` [Example A38, (3R)-3-Amino-3-{[(1S,2S)-2-Methyl-1-({2-Oxo-2-[(2S)-2-[(2H-1,2,3,4-Tetrazol-5-Ylmethyl)Carbamoyl]-2,3-Dihydro-1H-Indol-1-Yl]Ethyl}Carbamoyl)Butyl]Carbamoyl}Propanoic Acid], the IC50 fell in the range of 0.1 to 1 µM.

The same experiment, now with this note: activity codes, Table 7; read-out: IC50 Activity Range.
Turning to `CC(C)(C)OC[C@H](NC(=O)Cc1ccccc1)C(=O)NCC(=O)N1c2ccccc2C[C@H]1C(=O)NCc1nn[nH]n1` [Example C8, (2S)-1-{2-[(2S)-3-(Tert-Butoxy)-2-(2-Phenylacetamido)Propanamido]Acetyl}-N-(2H-1,2,3,4-Tetrazol-5-Ylmethyl)-2,3-Dihydro-1H-Indole-2-Carboxamide], the IC50 is over 10 µM.

In the case of `CCC[C@H](NC(=O)Cc1ccccc1)C(=O)NCC(=O)N1c2ccccc2C[C@H]1C(=O)NCc1nn[nH]n1` [Example C5, (2S)-1-{2-[(2S)-2-(2-Phenylacetamido)Pentanamido]Acetyl}-N-(2H-1,2,3,4-Tetrazol-5-Ylmethyl)-2,3-Dihydro-1H-Indole-2-Carboxamide], the IC50 lay within 1 to 10 µM.

For `CC[C@H](C)[C@H](NC(=O)Cc1ccccc1)C(=O)NCC(=O)N1c2cc(OC)ccc2CC1C(=O)NCc1c[nH]nn1` (stereo partly drawn) [Example B6, 6-Methoxy-1-{2-[(2S,3S)-3-Methyl-2-(2-Phenylacetamido)Pentanamido]Acetyl}-N-(1H-1,2,3-Triazol-5-Ylmethyl)-2,3-Dihydro-1H-Indole-2-Carboxamide], the 50% inhibitory concentration (IC50) is 1 to 10 µM.

As to `C[C@H](O)[C@H](NC(=O)Cc1ccccc1)C(=O)NCC(=O)N1c2ccccc2C[C@H]1C(=O)NCc1nn[nH]n1` [Example C3, (2S)-1-{2-[(2S,3S)-3-Hydroxy-2-(2-Phenylacetamido)Butanamido]Acetyl}-N-(2H-1,2,3,4-Tetrazol-5-Ylmethyl)-2,3-Dihydro-1H-Indole-2-Carboxamide], the IC50 was over 10 µM.

As to `CC[C@H](C)[C@H](Nc1ncccn1)C(=O)NCC(=O)N1c2ccccc2C[C@H]1C(=O)NCc1nn[nH]n1` [Example C26, (2S)-1-{2-[(2S,3S)-3-Methyl-2-[(Pyrimidin-2-Yl)Amino]Pentanamido]Acetyl}-N-(2H-1,2,3,4-Tetrazol-5-Ylmethyl)-2,3-Dihydro-1H-Indole-2-Carboxamide], the IC50 is over 10 µM.

As for `CC[C@H](C)[C@H](NC(=O)[C@H](C)c1ccccc1)C(=O)NCC(=O)N1c2ccccc2C[C@H]1C(=O)NCc1nn[nH]n1` [Example A49, (2S)-1-{2-[(2S,3S)-3-Methyl-2-[(2R)-2-Phenylpropanamido]Pentanamido]Acetyl}-N-(2H-1,2,3,4-Tetrazol-5-Ylmethyl)-2,3-Dihydro-1H-Indole-2-Carboxamide], the IC50 was in the range of 0.1 to 1 µM.

As to `CC[C@H](C)[C@H](NC(=O)Cc1cccc(CC(=O)O)c1)C(=O)NCC(=O)N1c2ccccc2C[C@H]1C(=O)NCc1nn[nH]n1` [Example A35, 2-[3-({[(1S,2S)-2-Methyl-1-({2-Oxo-2-[(2S)-2-[(2H-1,2,3,4-Tetrazol-5-Ylmethyl)Carbamoyl]-2,3-Dihydro-1H-Indol-1-Yl]Ethyl}Carbamoyl)Butyl]Carbamoyl}Methyl)Phenyl]Acetic Acid], the IC50 was under 0.1 µM.

With `O=C(O)CCC(=O)N1CCC[C@H]1C(=O)NCC(=O)N1c2ccccc2C[C@H]1C(=O)NCc1nn[nH]n1` [Example C28, 4-Oxo-4-[(2S)-2-({2-Oxo-2-[(2S)-2-[(2H-1,2,3,4-Tetrazol-5-Ylmethyl)Carbamoyl]-2,3-Dihydro-1H-Indol-1-Yl]Ethyl}Carbamoyl)Pyrrolidin-1-Yl]Butanoic Acid], the IC50 is over 10 µM.

In the case of `CC[C@H](C)[C@H](NC(=O)Cc1ccccc1)C(=O)N[C@H](CC(=O)O)C(=O)N1c2ccccc2C[C@H]1C(=O)NCc1nn[nH]n1` [Example C15, (3R)-3-[(2S,3S)-3-Methyl-2-(2-Phenylacetamido)Pentanamido]-4-Oxo-4-[(2S)-2-[(2H-1,2,3,4-Tetrazol-5-Ylmethyl)Carbamoyl]-2,3-Dihydro-1H-Indol-1-Yl]Butanoic Acid], the IC50 lay within 1 to 10 µM.

For `O=C(O)CCC(=O)N[C@H](C(=O)NCC(=O)N1c2ccccc2C[C@H]1C(=O)NCc1nn[nH]n1)c1ccsc1` [Example C23, 3-{[(S)-({2-Oxo-2-[(2S)-2-[(2H-1,2,3,4-Tetrazol-5-Ylmethyl)Carbamoyl]-2,3-Dihydro-1H-Indol-1-Yl]Ethyl}Carbamoyl)(Thiophen-3-Yl)Methyl]Carbamoyl}Propanoic Acid], the half-maximal inhibitory concentration (IC50) lay in the range of 1 to 10 µM.

Turning to `C[C@H](OC(C)(C)C)[C@H](NC(=O)Cc1ccccc1)C(=O)NCC(=O)N1c2ccccc2C[C@H]1C(=O)NCc1nn[nH]n1` [Example C10, (2S)-1-{2-[(2S,3S)-3-(Tert-Butoxy)-2-(2-Phenylacetamido)Butanamido]Acetyl}-N-(2H-1,2,3,4-Tetrazol-5-Ylmethyl)-2,3-Dihydro-1H-Indole-2-Carboxamide], the IC50 is over 10 µM.

As for `CC[C@H](C)[C@H](NC(=O)CCCCC(=O)O)C(=O)NCC(=O)N1c2ccccc2C[C@H]1C(=O)NCc1nn[nH]n1` [Example A5, 5-{[(1S,2S)-2-Methyl-1-({2-Oxo-2-[(2S)-2-[(2H-1,2,3,4-Tetrazol-5-Ylmethyl)Carbamoyl]-2,3-Dihydro-1H-Indol-1-Yl]Ethyl}Carbamoyl)Butyl]Carbamoyl}Pentanoic Acid], the concentration for half-maximal inhibition (IC50) was under 0.1 µM.

`CC[C@H](C)[C@H](NC(=O)Cc1ccccc1)C(=O)N[C@@H](CCCCN)C(=O)N1c2ccccc2C[C@H]1C(=O)NCc1nn[nH]n1` [Example C18, (2S)-1-[(2S)-6-Amino-2-[(2S,3S)-3-Methyl-2-(2-Phenylacetamido)Pentanamido]Hexanoyl]-N-(2H-1,2,3,4-Tetrazol-5-Ylmethyl)-2,3-Dihydro-1H-Indole-2-Carboxamide]: the IC50 is over 10 µM.

Regarding `CC[C@H](C)[C@H](NC(=O)Cc1ccccc1)C(=O)NCC(=O)N1c2ccc(NCc3ccccc3)cc2C[C@H]1C(=O)NCc1nn[nH]n1` [Example C35], the IC50 was over 10 µM.

For `C[C@@H](OC(C)(C)C)[C@H](NC(=O)Cc1ccccc1)C(=O)NCC(=O)N1c2ccccc2C[C@H]1C(=O)NCc1nn[nH]n1` [Example C9, (2S)-1-{2-[(2S,3R)-3-(Tert-Butoxy)-2-(2-Phenylacetamido)Butanamido]Acetyl}-N-(2H-1,2,3,4-Tetrazol-5-Ylmethyl)-2,3-Dihydro-1H-Indole-2-Carboxamide], the IC50 was over 10 µM.

As to `CC[C@H](C)[C@H](NC(=O)OC(C)(C)C)C(=O)NCC(=O)N1c2ccccc2C[C@H]1C(=O)NCc1nn[nH]n1` [Example I-5, tert-Butyl N-[(1S,2S)-2-methyl-1-({2-oxo-2-[(2S)-2-[(2H-1,2,3,4-tetrazol-5-ylmethyl)carbamoyl]-2,3-dihydro-1H-indol-1-yl]ethyl}carbamoyl)butyl]carbamate], the IC50 was 1 to 10 µM.

Take `CC[C@H](C)[C@H](NC(=O)Cc1nn[nH]n1)C(=O)NCC(=O)N1c2ccccc2C[C@H]1C(=O)NCc1c[nH]nn1` [Example C39, (2S)-1-{2-[(2S,3S)-3-Methyl-2-[2-(2H-1,2,3,4-Tetrazol-5-Yl)Acetamido]Pentanamido]Acetyl}-N-(1H-1,2,3-Triazol-4-Ylmethyl)-2,3-Dihydro-1H-Indole-2-Carboxamide]: the IC50 is under 0.1 µM.

Consider `CC[C@H](C)[C@H](NC(=O)[C@@H](O)[C@H](O)C(=O)O)C(=O)NCC(=O)N1c2ccccc2C[C@H]1C(=O)NCc1nn[nH]n1` [Example A33, (2S,3S)-2,3-Dihydroxy-3-{[(1S,2S)-2-Methyl-1-({2-Oxo-2-[(2S)-2-[(2H-1,2,3,4-Tetrazol-5-Ylmethyl)Carbamoyl]-2,3-Dihydro-1H-Indol-1-Yl]Ethyl}Carbamoyl)Butyl]Carbamoyl}Propanoic Acid], for which the IC50 was under 0.1 µM.
